In patent US20110086758A1, “Fungicidal compositions comprising 3'-bromo-2,3,4,6'-tetramethoxy-2',6-dimethylbenzophenone” (BASF SE, priority 2008, published 2011):

Tested on: Sphaerotheca fuliginea
Test: Field testing on melons, natural infection with Sphaerotheca fuliginea
Type: in vivo
Details: efficacy in % of untreated control, 3 applications
Procedure: The visually determined percentages of infected leaf areas were converted into efficacies in % of the untreated control: The efficacy (E) is calculated as follows using Abbot's formula: W=(1−α/β)·100 • α corresponds to the fungicidal infection of the treated plants in % and • β corresponds to the fungicidal infection of the untreated (control) plants in % At an efficacy of 0, the infection level of the treated plants corresponds to that of the untreated control plants; at an efficacy of 100, the treated plants are not infected. The expected efficacies of active compound mixtures were determined using Colby's formula (S. R. Colby, “Calculating synergistic and antagonistic responses of herbicide combinations”, Weeds 15, pp. 20-22 (1967) and compared with the observed efficacies. E=x+y−x·y/100 • expected efficacy, expressed in % of the untreated control, when using the mixture of the active compounds A and B at the concentrations a and b • x efficacy, expressed in % of the untreated control, when using the active compound A at the concentration a • y efficacy, expressed in % of the untreated control, when using the active compound B at the concentration b The trial was carried out under standardized field conditions. Melons were grown in the field. After 36 days, an application with the recited products was carried out, which was repeated two times after 7 days and after 14 days. No further active components for pathogen control were applied. The infection with the pathogen Sphaerotheca fuliginea ensued naturally. Infestation in % of leaf area affected was scored 35 days after the first application. The visually determined values of % of leaf area infected was initially averaged and then converted into efficacies as % of the untreated control. An efficacy of 0 is the same infestation as the untreated control, an efficacy of 100% is 0% infestation. The expected efficacies of active compound combinations were determined as described above using Colby's formula and compared with the observed efficacies. The active compounds were used as commercially available compositions. […]

SMILES | Observed effect 35 days after first treatment (dose 30 g ai/ha, scored 35 days after first application) | Observed effect 35 days after first treatment (dose 50 g ai/ha, scored 35 days after first application) | Observed effect 35 days after first treatment (dose 100 g ai/ha, leaf area infested scored 35 days after first application)
CC1COC(Cn2cncn2)(c2ccc(Oc3ccc(Cl)cc3)cc2Cl)O1 (stereo not drawn) [Difenoconazole, 1-{2-[2-chloro-4-(4-chlorophenoxy)phenyl]-4-methyl-[1,3]dioxolan-2-ylmethyl}-1H-[1,2,4]triazole] | 19% | – | –
COc1cc(C)c(C(=O)c2c(OC)ccc(Br)c2C)c(OC)c1OC [Metrafenone, 3′-bromo-2,3,4,6′-tetramethoxy-2′,6-dimethylbenzophenone] | – | 46% | 70%
